# Results from patent publication US20250339421A1, “METHODS FOR TREATING BILE DUCT CANCERS WITH TIVOZANIB” (The U.S.A., as represented by the Secretary, Department of …, priority 2021, published 2025).
# Counter-ions that a name gives are not always drawn.
# Tests used:
# [1] = cited from earlier work
# AKT S473 phosphorylation [2] = assay: AKT S473 phosphorylation in WITT cholangiocarcinoma cells; format: cell-based; conditions: WITT cell line, compared to control levels
# AKT S473 phosphorylation [3] = assay: AKT S473 phosphorylation in EGI-1 cholangiocarcinoma cells; format: cell-based; conditions: EGI-1 cell line, compared to control levels
# AKT S473 phosphorylation [4] = assay: AKT S473 phosphorylation in SNU-1079 cholangiocarcinoma cells; format: cell-based; conditions: SNU-1079 cell line, compared to control levels
# WITT [5] = assay: proliferation of WITT cholangiocarcinoma cells; format: cell-based; conditions: WITT cell line; IC50 only in FIG. 3C-3E
# EGI-1 [6] = assay: proliferation of EGI-1 cholangiocarcinoma cells; format: cell-based; conditions: EGI-1 cell line; IC50 only in FIG. 3C-3E
# SNU-1079 = assay: proliferation of SNU-1079 cholangiocarcinoma cells; format: cell-based; conditions: SNU-1079 cell line; IC50 only in FIG. 3C-3E
# WITT [7] = assay: tumor organoid assay, WITT; format: cell-based; conditions: tivozanib at 200 nM vs control
# Procedure: (§1) Images of control are on the top row, whereas the effects of tivozanib at 200 nM are shown in the bottom row where the tumor organoids are smaller and fewer than in the control.
# EGI-1 [8] = assay: tumor organoid assay, EGI-1; format: cell-based; conditions: tivozanib at 200 nM vs control
# Procedure: as §1
# SNU-1070 = assay: tumor organoid assay, SNU-1070 (SNU-1079); format: cell-based; conditions: SNU-1070 as printed; tivozanib at 200 nM vs control
# Procedure: as §1
# EGI-1 cell line = assay: subcutaneous xenograft model (EGI-1 cell line); format: in vivo, athymic nude mice
# Procedure: FIG. 3G is a photograph of tumors obtained in a subcutaneous xenograft model using athymic nude mice (top row=vehicle treated; bottom row=20 mg/kg/day Tivozanib treatment for 28 days).
# FIG. 3L provides a photograph of tumors obtained in an EGI-1 CCA cell line subcutaneous xenograft model following 28 days of treatment with vehicle or bevacizumab (top row=vehicle treated; bottom row=bevacizumab). Bevacizumab was provided at the standard murine dose. […] However, the reduction was not as dramatic as that seen with tivozanib alone (see FIG. 3H). As bevacizumab is an anti-VEGF antibody, the reduction seen in tumor volume provided by tivozanib cannot be attributed to its VEGF inhibitory properties alone; otherwise, a similar reduction would have been expected with bevacizumab.
# To confirm that the tumoricidal effects of tivozanib were not due to its activity as a VEGF inhibitor, but could be attributed to action on SLK, the antitumor effects of bevacizumab, an anti-VEGF antibody, on EGI-1 cholangiocarcinoma xenografts were evaluated. […] If the decrease in tumor size with tivozanib was due solely to its activity as a VEGF inhibitor, bevacizumab should have produced similar results.
# [9] = test system: liver metastasis from a patient with XPO7-expressing cholangiocarcinoma; assay: ex vivo tumor SMART platform, H&E and Ki67 staining; format: cell-based, human
# Procedure: Finally, tivozanib was evaluated in the ex vivo tumor SMART platform described in International Patent Application No. WO2021/183527 which is incorporated by reference herein for all purposes. A liver metastasis from a patient with XPO7-expressing cholangiocarcinoma was evaluated using H&E staining and Ki67 staining to contrast treatment with control versus tivozanib.
# VEGFR-3 = VEGFR-3 (Homo sapiens, UniProt P35916); conditions: at clinically relevant concentrations; cited from earlier work
# Chain of VEGFR-3 (P35916 25-1363): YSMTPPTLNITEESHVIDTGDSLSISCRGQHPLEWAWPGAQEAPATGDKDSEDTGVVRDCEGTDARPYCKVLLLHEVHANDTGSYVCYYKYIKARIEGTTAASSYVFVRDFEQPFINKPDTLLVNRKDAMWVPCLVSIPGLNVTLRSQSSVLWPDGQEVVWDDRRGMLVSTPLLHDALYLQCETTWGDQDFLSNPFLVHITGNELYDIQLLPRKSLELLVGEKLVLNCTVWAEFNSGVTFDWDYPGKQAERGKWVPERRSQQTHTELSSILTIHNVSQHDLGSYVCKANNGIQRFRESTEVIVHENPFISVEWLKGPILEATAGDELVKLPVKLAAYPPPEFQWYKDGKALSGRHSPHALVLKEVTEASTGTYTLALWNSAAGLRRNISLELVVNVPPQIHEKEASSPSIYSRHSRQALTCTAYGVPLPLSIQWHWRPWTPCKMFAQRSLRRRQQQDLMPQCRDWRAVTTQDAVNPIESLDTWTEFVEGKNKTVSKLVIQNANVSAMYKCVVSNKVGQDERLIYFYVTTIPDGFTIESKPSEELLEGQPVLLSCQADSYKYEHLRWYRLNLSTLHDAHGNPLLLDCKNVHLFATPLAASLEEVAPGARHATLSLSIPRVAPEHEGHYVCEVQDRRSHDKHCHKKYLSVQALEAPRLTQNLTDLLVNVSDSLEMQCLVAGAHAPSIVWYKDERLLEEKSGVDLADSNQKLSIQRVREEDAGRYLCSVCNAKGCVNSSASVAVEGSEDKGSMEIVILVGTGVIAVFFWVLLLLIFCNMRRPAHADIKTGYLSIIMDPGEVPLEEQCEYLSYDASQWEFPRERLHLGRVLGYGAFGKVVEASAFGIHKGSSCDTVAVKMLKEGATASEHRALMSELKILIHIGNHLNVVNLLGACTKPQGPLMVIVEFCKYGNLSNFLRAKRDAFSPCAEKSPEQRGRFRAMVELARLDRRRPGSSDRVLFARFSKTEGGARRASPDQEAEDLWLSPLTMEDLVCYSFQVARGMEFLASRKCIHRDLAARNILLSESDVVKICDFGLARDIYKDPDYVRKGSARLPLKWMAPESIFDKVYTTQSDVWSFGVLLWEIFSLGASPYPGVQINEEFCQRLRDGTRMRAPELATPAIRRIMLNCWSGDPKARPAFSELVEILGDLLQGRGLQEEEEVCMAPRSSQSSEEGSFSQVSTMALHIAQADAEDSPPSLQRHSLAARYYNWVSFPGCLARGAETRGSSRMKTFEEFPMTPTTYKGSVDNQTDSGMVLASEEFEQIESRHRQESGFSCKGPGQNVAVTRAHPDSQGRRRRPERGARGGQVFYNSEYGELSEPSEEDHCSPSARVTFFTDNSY
# c-kit = c-kit (Homo sapiens, UniProt P10721); conditions: at clinically relevant concentrations; cited from earlier work
# Chain of c-kit (P10721 26-976): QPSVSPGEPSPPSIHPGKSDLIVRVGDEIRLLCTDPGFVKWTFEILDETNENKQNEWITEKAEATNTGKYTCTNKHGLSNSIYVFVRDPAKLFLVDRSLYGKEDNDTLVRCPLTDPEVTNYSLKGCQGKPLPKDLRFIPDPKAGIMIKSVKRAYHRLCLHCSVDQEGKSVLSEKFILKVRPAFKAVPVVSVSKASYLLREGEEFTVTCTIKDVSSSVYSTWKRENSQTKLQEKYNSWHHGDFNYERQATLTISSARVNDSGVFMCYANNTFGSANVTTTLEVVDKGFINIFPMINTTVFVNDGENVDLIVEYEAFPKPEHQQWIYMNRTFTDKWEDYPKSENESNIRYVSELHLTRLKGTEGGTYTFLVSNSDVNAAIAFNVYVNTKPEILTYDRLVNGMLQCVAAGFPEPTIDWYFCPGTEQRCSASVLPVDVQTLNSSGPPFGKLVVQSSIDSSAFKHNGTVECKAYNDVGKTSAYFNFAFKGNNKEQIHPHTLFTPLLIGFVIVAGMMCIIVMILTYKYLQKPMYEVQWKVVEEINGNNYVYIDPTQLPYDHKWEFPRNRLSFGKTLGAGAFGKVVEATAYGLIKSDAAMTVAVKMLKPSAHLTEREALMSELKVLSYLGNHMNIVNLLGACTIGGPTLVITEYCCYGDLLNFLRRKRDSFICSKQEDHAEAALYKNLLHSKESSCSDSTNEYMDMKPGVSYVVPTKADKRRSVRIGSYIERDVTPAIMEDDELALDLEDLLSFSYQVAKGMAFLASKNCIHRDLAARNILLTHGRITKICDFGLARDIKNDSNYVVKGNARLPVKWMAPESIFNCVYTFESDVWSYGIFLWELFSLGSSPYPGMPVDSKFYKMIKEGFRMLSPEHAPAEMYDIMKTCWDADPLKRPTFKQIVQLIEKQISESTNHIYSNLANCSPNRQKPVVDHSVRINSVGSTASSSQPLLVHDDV
# PDGFR β = PDGFR β (Homo sapiens, UniProt P09619); conditions: at clinically relevant concentrations; cited from earlier work
# Chain of PDGFR β (P09619 33-1106): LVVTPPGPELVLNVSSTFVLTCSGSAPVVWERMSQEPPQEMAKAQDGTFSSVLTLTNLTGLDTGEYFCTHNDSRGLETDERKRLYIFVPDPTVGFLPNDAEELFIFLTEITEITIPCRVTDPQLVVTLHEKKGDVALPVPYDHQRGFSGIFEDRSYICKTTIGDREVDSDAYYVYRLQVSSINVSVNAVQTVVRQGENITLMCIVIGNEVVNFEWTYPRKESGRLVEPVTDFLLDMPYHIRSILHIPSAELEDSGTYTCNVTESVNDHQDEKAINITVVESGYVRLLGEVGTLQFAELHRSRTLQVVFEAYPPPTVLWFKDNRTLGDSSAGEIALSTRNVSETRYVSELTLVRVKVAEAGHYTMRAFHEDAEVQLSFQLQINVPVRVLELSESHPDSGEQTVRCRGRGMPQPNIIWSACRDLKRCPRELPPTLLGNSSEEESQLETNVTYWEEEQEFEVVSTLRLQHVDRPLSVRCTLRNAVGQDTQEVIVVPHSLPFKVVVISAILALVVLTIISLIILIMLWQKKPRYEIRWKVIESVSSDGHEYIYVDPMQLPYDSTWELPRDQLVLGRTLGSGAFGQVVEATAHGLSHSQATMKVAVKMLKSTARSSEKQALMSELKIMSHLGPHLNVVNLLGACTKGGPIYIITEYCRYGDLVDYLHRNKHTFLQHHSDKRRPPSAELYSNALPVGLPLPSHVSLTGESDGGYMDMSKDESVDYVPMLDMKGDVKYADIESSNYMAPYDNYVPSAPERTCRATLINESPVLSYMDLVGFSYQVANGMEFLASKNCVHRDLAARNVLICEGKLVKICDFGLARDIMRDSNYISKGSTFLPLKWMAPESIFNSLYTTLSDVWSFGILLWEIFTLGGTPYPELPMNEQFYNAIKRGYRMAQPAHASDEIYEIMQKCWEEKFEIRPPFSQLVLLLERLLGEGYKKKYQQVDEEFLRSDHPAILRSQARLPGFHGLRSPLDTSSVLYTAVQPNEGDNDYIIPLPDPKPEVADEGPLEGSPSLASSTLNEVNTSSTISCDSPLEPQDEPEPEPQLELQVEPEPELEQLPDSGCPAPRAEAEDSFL
# [10] = test system: various tumor cell types including human renal cell carcinoma; conditions: tumor xenograft models in mice and rats; cited from earlier work
# [11] = patients on Tivozanib; cited from earlier work
# SLK = SLK (Homo sapiens, UniProt Q9H2G2); assay: kinome inhibition screen; conditions: FIG. 3A
# Chain of SLK (Q9H2G2 whole entry): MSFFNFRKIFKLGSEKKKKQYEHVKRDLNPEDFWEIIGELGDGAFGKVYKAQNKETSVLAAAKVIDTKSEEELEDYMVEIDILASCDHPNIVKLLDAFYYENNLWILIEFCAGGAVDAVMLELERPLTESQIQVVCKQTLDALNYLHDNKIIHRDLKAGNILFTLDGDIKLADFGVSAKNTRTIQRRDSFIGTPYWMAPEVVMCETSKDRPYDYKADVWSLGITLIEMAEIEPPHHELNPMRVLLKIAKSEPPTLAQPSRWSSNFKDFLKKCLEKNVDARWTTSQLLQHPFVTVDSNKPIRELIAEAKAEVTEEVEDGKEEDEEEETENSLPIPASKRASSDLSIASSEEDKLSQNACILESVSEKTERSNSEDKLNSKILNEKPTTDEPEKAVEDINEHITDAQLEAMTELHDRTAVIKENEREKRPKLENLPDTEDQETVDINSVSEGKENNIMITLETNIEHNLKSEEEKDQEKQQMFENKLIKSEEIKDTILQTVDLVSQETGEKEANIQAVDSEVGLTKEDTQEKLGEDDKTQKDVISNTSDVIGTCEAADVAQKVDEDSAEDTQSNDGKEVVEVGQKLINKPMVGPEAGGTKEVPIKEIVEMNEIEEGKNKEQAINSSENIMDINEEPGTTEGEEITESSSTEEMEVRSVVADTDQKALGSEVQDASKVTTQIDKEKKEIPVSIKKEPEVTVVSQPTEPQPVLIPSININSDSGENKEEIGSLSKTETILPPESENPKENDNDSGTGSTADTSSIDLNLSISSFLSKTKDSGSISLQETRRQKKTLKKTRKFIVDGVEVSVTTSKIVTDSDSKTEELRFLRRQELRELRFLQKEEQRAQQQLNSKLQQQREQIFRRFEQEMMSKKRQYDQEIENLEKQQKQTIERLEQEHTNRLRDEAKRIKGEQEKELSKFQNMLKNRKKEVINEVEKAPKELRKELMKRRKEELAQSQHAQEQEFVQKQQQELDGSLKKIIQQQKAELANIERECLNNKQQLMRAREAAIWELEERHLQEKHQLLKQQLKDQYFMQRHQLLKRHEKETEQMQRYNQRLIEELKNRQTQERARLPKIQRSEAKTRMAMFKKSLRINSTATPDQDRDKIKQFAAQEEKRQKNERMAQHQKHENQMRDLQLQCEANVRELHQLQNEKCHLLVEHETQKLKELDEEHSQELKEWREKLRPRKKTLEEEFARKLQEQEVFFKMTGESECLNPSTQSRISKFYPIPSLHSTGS
compound,measurement,setting,value
"COc1cc2nccc(Oc3ccc(NC(=O)Nc4cc(C)on4)c(Cl)c3)c2cc1OC [Tivozanib hydrochloride, 1-{2-chloro-4-[(6,7-dimethoxyquinolin-4-yl)oxy]phenyl}-3-(5-methylisoxazol-3-yl) urea hydrochloride hydrate]",solubility in water,[1],practically insoluble in water
"COc1cc2nccc(Oc3ccc(NC(=O)Nc4cc(C)on4)c(Cl)c3)c2cc1OC [tivozanib, N-{2-chloro-4-[(6,7-dimethoxy-4-quinolyl)oxy]-phenyl}-N′-(5-methyl-3-isoxazolyl) urea]",AKT S473 phosphorylation,AKT S473 phosphorylation [2],inhibited AKT S473 phosphorylation
same,AKT S473 phosphorylation,AKT S473 phosphorylation [3],inhibited AKT S473 phosphorylation
same,AKT S473 phosphorylation,AKT S473 phosphorylation [4],inhibited AKT S473 phosphorylation
same,proliferation,WITT [5],inhibited proliferation
same,proliferation,EGI-1 [6],inhibited proliferation
same,proliferation,SNU-1079,inhibited proliferation
same,tumor organoid formation,WITT [7],abrogated tumor formation
same,tumor organoid formation,EGI-1 [8],abrogated tumor formation
same,tumor organoid formation,SNU-1070,abrogated tumor formation
same,tumor growth in vivo,EGI-1 cell line; EGI-1 subcutaneous xenograft,inhibited tumor growth
same,final tumor volume vs control vehicle,"EGI-1 cell line; tivozanib 20 mg/kg/day for 28 days, p value of <0.001",statistically significantly smaller in volume
same,change in tumor volume over the course of treatment,"EGI-1 cell line; waterfall plot FIG. 3I, compared to control",substantial change in tumor volume
same,cell degeneration,[9]; 0.2 μg/mL tivozanib,statistically significant increased cell degeneration
same,viable cells compared to control,[9]; 0.2 μg/mL tivozanib,fewer viable cells
same,cell degeneration,[9]; 1 μg/mL tivozanib,statistically significant increased cell degeneration
same,viable cells compared to control,[9]; 1 μg/mL tivozanib,fewer viable cells
same,Ki67 staining (dark stained nuclei),"[9]; day 4, vs control tissue (0 μg/mL tivozanib)",reduction in dark stained nuclei
same,cell death,[9]; higher dose level (1 μg/mL tivozanib),statistically significant levels of cell death
same,phosphorylation of VEGFR-3,VEGFR-3,inhibits phosphorylation
same,inhibition of c-kit,c-kit,inhibits
same,inhibition of PDGFR β,PDGFR β,inhibits
same,angiogenesis,[10],inhibited
same,tumor growth,[10],inhibited
same,incidence of hypertension,[11],high incidence
same,inhibition of SLK,SLK,potent inhibitor of SLK
bevacizumab: an anti-VEGF antibody,average tumor volume vs control group,"EGI-1 cell line; bevacizumab, standard murine dose, 28 days of treatment",statistically significantly smaller
